# Measured values taken from US5994357A, “Method of treatment for interstitial cystitis” (priority 1994, dated 1999).
# Counter-ions that a name gives are not always drawn.
# Tests used:
# [1] = format: in vivo, human (female patients); settings: for relief by previous treatment: six DMSO treatments and one heparin treatment
# Method: They were administered a 75 mg oral dose of hydroxyzine pamoate per day. After 5 days the burning sensation upon voiding and sharp pelvic pain disappeared. In two months, the extreme tenderness from their chest area to pelvic area also disappeared. After about 10 to 12 weeks frequency was eliminated. […] Upon discontinuing administration of hydroxyzine pamoate symptoms reappeared within 24 hours or less. After one year of treatment, the subject takes 50 mg and 25 mg of hydroxyzine pamoate, respectively, on alternating days, with continued 100% success.
# This person three was diagnosed with interstitial cystitis in March 1989. […] Their symptoms included constant burning in the bladder, pain at the connection of the buttocks with the upper legs and painful sexual intercourse. They could not sleep although their need to urinate was only about four times per night. Sitting on "blue ice" packs wrapped in a cloth provided some relief from the buttock pain and the burning.
# This is person one who experienced increasing problems over the last 10 years until it became difficult to function as a nurse, parent and spouse. […] They had not received any treatment since February 1990 and was experienceing a flare up of symptoms when they tried hydroxyzine-HCl. […]
# [2] = tested on: Rat Bladder Mast Cells; assay: ID20 for histamine release, inhibition of mast cell secretion by H-1 receptor antagonists in vitro (Table 5); format: cell-based; settings: inhibitory dose causing 20% inhibition, read-out: ID20 for Histamine Release from Rat Bladder Mast Cells
# Excerpt: "Inhibitor of neurohormonal activation of mast cell secretion" refers to any substance or group of substances, devoid of any psychotropic effects which prevent the stimulation of mast cell secretion by hormones or molecules produced by nervous tissue.
# (§1) More appropriate to interstitial cystitis, bladder mast cells can be triggered to secrete in situ using slices of rodent bladders in perfusion chambers and measuring secreted chemicals (Theoharides, T. C. and Sant, G. R. Bladder mast cell activation in interstitial cystitis. Seminars Urology 9:74-87, 1991).
# [3] = tested on: bladder mast cells; assay: Inhibition of neurohormonal activation of bladder mast cell secretion; format: cell-based; settings: for inhibition of neurohormonal activation of bladder mast cell secretion (in words): found by the applicant
# Excerpt: "Inhibitor of neurohormonal activation of mast cell secretion" refers to any substance or group of substances, devoid of any psychotropic effects which prevent the stimulation of mast cell secretion by hormones or molecules produced by nervous tissue. Whether or not a pharmacologically active substance is an inhibitor of neurohormonal activation of mast cell secretion can be determined by using the following procedure: Mast cells purified from peritoneal cavities of rats and stimulated by a neuropeptide, such as somatostatin (Theoharides, T. C. and Douglas, W. W. Endocrinology 102:1637-1640, 1978), or rat brain slices stimulated by substance P in special perfusion chambers (Dimitriadou, V., Buzzi, M. G., Moskowitz, M. A. and Theoharides, T. C. Neuroscience 44:27-39, 1991) or rat bladder mast cells stimulated by carbachol in special perfusion chambers (Theoharides, T. C. and Sant, G. R. Seminars Urology […], 1991) will first be […] with concentration of the agents to be tested ranging from 0.1 μmol/L-to-100 μmol/L of solution for varying amounts of time at 37° C. to determine their ability to inhibit subsequent mast cell secretion as described above.
# These compounds can be tested by preincubating mast cells purified from the peritoneal cavity of rats with various concentrations of compound, typically 0.1 μmol/L to 1,000 μmol/L, for various times at 37° C. before stimulating mast ctll secretion with a stimulus such as somatostatin (Theoharides, T. C. and Douglas, W. W. Somatostatin induces histamine secretion from rat peritoneal mast cells. Endocrinology 102:1637-1640, 1978).
# as §1
# [4] = cited from earlier work
# [5] = cited from earlier work; remark: listed apart in the source
# [6] = tested on: neurons; assay: Inhibition of neuropeptide release from neurons stimulated by high K^+; format: cell-based
# [7] = Anticholinergic and anxiolytic properties; settings: decreasing frequency
# [8] = Example 2, patient three, since March 1991
# [9] = Example 2, patient three, 25 mg
# [10] = Example 1, patient two, 75 mg oral per day
compound,measurement,setting,value
OCCOCCN1CCN(C(c2ccccc2)c2ccc(Cl)cc2)CC1 (racemic) [hydroxyzine-HCl],pain on sexual intercourse,"[1]; Example 2, patient three",no longer associated with severe bladder pain
same,quality of life,"[1]; Example 2, patient three",definitely improved the quality of their life
same,tolerance of offending foods,"[1]; Example 2, patient three",they can eat some offending foods in small quantities
same,burning in the bladder,[1]; [8],the burning has subsided significantly
same,buttock pain,[1]; [8],the buttock pain is reduced
same,symptoms on attempted withdrawal of the drug,"[1]; Example 3, patient one, 2 or 3 occasions",definite increase in interstitial cystitissymptoms
same,bladder comfort,"[1]; Example 3, patient one, 25 to 50 mg daily",almost total bladder comfort
same,control of symptoms,"[1]; Example 3, patient one, daily since May 1990",remarkable control of symptoms
CN1CCC(=C2c3ccccc3CCc3cccnc32)CC1 [Azatadine],IC20,[2],1000 nM
same,inhibition of neurohormonal activation of bladder mast cell secretion (in words),[3],inhibit neurohormonal activation of bladder mast cell secretion
CN1CCCC(n2nc(Cc3ccc(Cl)cc3)c3ccccc3c2=O)CC1 (stereo not drawn) [Azelastine],IC20,[2],1000 nM
same,inhibition of neurohormonal activation of bladder mast cell secretion (in words),[3],inhibit neurohormonal activation of bladder mast cell secretion
"C[S+](C)[O-] [DMSO, dimethylsulfoxide]",relief by previous treatment,"[1]; Example 2, patient three",very limited relief
same,improvement by previous treatment,"[1]; Example 3, patient one",fairly good improvement
same,side effects: bladder and urethra,[4]; intravesical,"Bladder spasms and irritability may be experienced with DMSO treatment, as well as urethral burning during voiding"
same,side effects: breath odor and taste,"[4]; intravesical, most patients",garlic-like breath odor and a similar taste in their mouths
same,pulmonary excretion,[5]; intravesical,pulmonary excretion of a small percentage of the DMSO as dimethyl sulfide
OCCOCCN1CCN(C(c2ccccc2)c2ccc(Cl)cc2)CC1 (stereo not drawn) [Hydroxyzine],IC20,[2],50000 nM
same,inhibition of secretion from stimulated bladder mast cells (in words),"[3]; Table 3, unique characteristics",inhibits secretion from stimulated bladder mast cells
same,inhibition of neurohormonal activation of bladder mast cell secretion (in words),[3],inhibit neurohormonal activation of bladder mast cell secretion
same,inhibition of neuropeptide release from neurons (in words),[6],inhibits neuropeptide release from neurons
same,anticholinergic properties (in words),[7],strong anticholinergic properties decreasing frequency
same,"relief from frequency, dysuria, pain","[1]; 9 females, 25 mg twice - three times/day × 8 months, alternate 25 mg every other day past 8 months",80-100%
same,Problems (side effects),"[1]; human, in vivo","Mild sedation, weakness × 1 week"
CN1CCC(=C2c3ccccc3CC(=O)c3sccc32)CC1 [Ketotifen],inhibition of neurohormonal activation of bladder mast cell secretion (in words),[3],inhibit neurohormonal activation of bladder mast cell secretion
CN(C)CCC=C1c2ccccc2CCc2ccccc21 [amitriptyline],success of previous treatment,"[1]; Example 1, patient two, conventional methods and amitriptyline",limited success
same,effect of previous treatment on sleep,[1]; [9],enabled them to sleep some
same,foods bringing symptoms on previous treatment,[1]; [9],many foods still brought severe symptoms
same,side effects,"[4]; human, in vivo","troublesome side effects such as hypotension, tachycardia, anxiety, or palpitations"
O=C(O)COCCN1CCN(C(c2ccccc2)c2ccc(Cl)cc2)CC1 (stereo not drawn) [cetirizine],inhibition of neurohormonal activation of bladder mast cell secretion (in words),[3],inhibit neurohormonal activation of bladder mast cell secretion
OCCOCCN1CCN(C(c2ccccc2)c2ccc(Cl)cc2)CC1 (stereo not drawn) [hydroxyzine pamoate],patient-reported state,"[1]; Example 1, patient two",felt 100% normal
same,time to reappearance of symptoms upon discontinuing administration,"[1]; Example 1, patient two",≤ 24 h
same,time to disappearance of burning sensation upon voiding and sharp pelvic pain,[1]; [10],5 days
same,time to disappearance of extreme tenderness from chest area to pelvic area,[1]; [10],two
same,continued success after one year of treatment,"[1]; Example 1, patient two, 50 mg and 25 mg on alternating days",100%
CN(C)CCN(Cc1ccccc1)c1ccccn1 [pyribenzamine],duration of the response,"[4]; oral, 50 mg three times daily",variable
same,symptomatic improvement,"[4]; oral, 50 mg three times daily",some symptomatic improvement
heparin,relief by previous treatment,"[1]; Example 2, patient three",very limited relief
sodium pentosan polysulfate,replacement of the protective surface mucin,[4]; oral or intravesical administration,replace the protective surface mucin
same,duration,[5]; must be taken numerous times per day,short duration
same,amount of drug reaching the site of treatment,[5]; oral,only a small amount of the drug will reach the site of treatment
same,metabolism,[5]; oral,primarily liver-metabolized
